Where two headings read alike, the source gives them in different places.

Here are results for 19 molecules from patent US9169295B2, “Macrocycles and macrocycle stabilized peptides” (Bristol-Myers Squibb Company, priority 2010, dated 2015).

The conditions of series [1]: other bond.
For series [2] the following is noted: the molecule shown is the open-chain precursor; other bond; 16-membered ring; TfOH; MeNO2; 13.4 mM; 25.0 °C.
The nature of series [3]: far-UV circular dichroism (CD) spectra with secondary structure estimated by deconvolution (α-helicity of MSP vs linear peptide). The class given is physicochemical. Particulars: 25° C. The procedure: To examine the α-helicity of the macrocycle stabilized peptides prepared according to the methods of the present invention, the far-UV circular dichrosim (CD) spectra of linear and macrocyclic peptides were measured and compared. Linear peptide of Example 93 and MSP of Example 93 as dry powder were prepared. A sample of each was weighed into a fresh 20 mL glass vial, and dissolved in anhydrous methanol (B&J), with vortexing for ˜1 min, to yield solutions with concentrations of 200 μM. The concentrations were based on the observed mass of peptide and the respective formula weights. The solutions were transferred to 1.8 mL polypropylene tubes, and centrifuged in a table top microcentrifuge for 5 min at rt and 14,000 rpm to pellet any insoluble material. The supernatants were transferred to clean 1.8 mL tubes for preparing final samples for analysis by circular dichroism (CD). Two sets of samples were prepared, one in 100% methanol at 200 μM peptide, the other in 50% aqueous methanol at 100 μM peptide prepared by adding an equal volume of ddH2O to stock methanol solutions.
Samples were transferred to clean 1 mm quartz cuvettes and CD analysis performed in a JASCO J=815 instrument, and temperature maintained at 25° C. Each peptide sample was scanned from 200-450 nm, using a bandwidth of 1.00 nm, standard sensitivity, data pitch of 0.1 nm, digital integration time of 4.0 sec, a scan speed of 20 nm/min, and 6 acquisitions averaged per sample. Blank solvent samples (100% methanol and 50% aqueous methanol) were recorded simultaneously and subtracted from the peptide spectra prior to final analysis. For calculation of mean residue molar ellipticity (Θ^MRW), the peptide concentration was multiplied by 12 to reflect the number of peptide residues in each molecule. Following blank corrections, the CD data for each peptide in each solvent was corrected for total mean residue ellipticity, and the secondary structure composition estimated by deconvolution using CDPRO module within the JASCO software. Three different algorithms were used for convolution (SELCON, CDSSTR and CONTIN), using the data obtained from 200-240 nm and a 56 protein reference data set. Each algorithm yielded similar distribution of secondary structure elements, and the final results reported as the mean and standard deviation from the three deconvolutions.
The deconvolution algorithms yield secondary structural elements of two types of α-helical structure, two types of […] structure, β-turn structure, and unstructured or random structure. The results reflect the average of summed α-helical forms, summed β-strand forms, the β-turn and unstructured forms from the three algorithms for the peptides in 100% methanol. The overlaid spectra illustrate the difference in signal in the far uv-region (200-240 nm) for the two related peptides in 100% methanol.

[4] abbreviates: from (5-(hydroxymethyl)thiazol-2-yl)-Val(D/L)-Ala-Ala-Tyr-NH2?, 19-membered ring, TfOH, MeNO2, 11.0 mM, 25.0 °C, 2 steps.
Setting [5] is: 50% aqueous methanol, 100 μM peptide.
Setting [6] is: 100% methanol, 200 μM peptide, CD 200-240 nm, mean of three deconvolution algorithms.
[7] abbreviates: from (5-(hydroxymethyl)thiazol-2-yl)-Val(D/L)-Ala-Ala-Ala-Ala-Tyr-NH2?, 25-membered ring, TfOH, MeNO2, 6.0 mM, 25.0 °C, 2 steps.
The mark [8] stands for this setting: from (5-(hydroxymethyl)thiazol-2-yl)-Val(D/L)-Gly-Tyr-NH2?, 16-membered ring, TfOH, MeNO2, 25.0 °C, 2 steps.

For the molecule `CC(C)[C@H]1NC2=NC=C(Cc3cc(ccc3O)C[C@@H](C(N)=O)NC(=O)[C@H](C)NC(=O)[C@H](C)NC1=O)S2` [Thia-V(d)AAY], in series [1] (setting [4]), the ring closure, yield after HPLC amounted to 16.4%.

Regarding `CC(C)[C@H]1NC2=NC=C(Cc3cc(ccc3O)C[C@@H](C(N)=O)NC(=O)CNC(=O)[C@H](C)NC(=O)[C@H](C)NC1=O)S2` [Thia-V(d)AAGY Macrocycle], the ring closure, yield after HPLC in series [1] (from (5-(hydroxymethyl)thiazol-2-yl)-dVal-Ala-Ala-Gly-Tyr-NH2?, 22-membered ring, TfOH, MeNO2, 6.83 mM, 25.0 °C, 2 steps) came to 38.7%. In series [2], “(5-(hydroxymethyl)thiazol-2-yl)-Gly-Gly-Tyr-NH2?” displayed a ring closure, conversion of 60%. `C[C@H](NC(=O)OCC1c2ccccc2-c2ccccc21)C(=O)N[C@@H](C)C(=O)NNC(=O)[C@@H](C)[C@@H](Cc1ccc(O)cc1)C(=O)N[C@@H](C)C(=O)N[C@@H](C)C(=O)NCC(=O)N[C@H]1Cc2ccc(O)c(c2)CC2=CN=C(NCCCNC(=O)[C@H](C)NC(=O)[C@H](C)NC(=O)[C@H](C)NC1=O)S2` [Example 91, C-terminal Macrocycle Peptide]: in series [3] (setting [5]), the unstructured conformation was 32%, the α-helical structure is reported as 23% and the β-structure is listed as 45%. Also, in series [3] (setting [6]), the unstructured conformation is recorded as 27%; the α-helical conformation is 53%; the “β-structure (β-strand and β-turn conformation)” value was 22%. For `CC(C)[C@H]1NC2=NC=C(Cc3cc(ccc3O)C[C@@H](C(N)=O)NC(=O)[C@H](C)NC(=O)[C@H](C)NC1=O)S2` [Thia-V(l)AAY (SEQ ID NO. 11)], in series [1] (setting [4]), the ring closure, yield after HPLC was determined as 11%.

For the molecule `C[C@@H]1NC(=O)CNC2=NC=C(Cc3cc(ccc3O)C[C@@H](C(=O)NCC(=O)O)NC(=O)[C@H](C)NC(=O)[C@H](C)NC1=O)S2`, in series [1] (from (5-(hydroxymethyl)thiazol-2-yl)-Gly-Ala-Ala-Ala-Tyr-Gly-OtBu?, 22-membered ring, TfOH, NMM quench, nitromethane, 11.8 mM, 25.0 °C), the ring closure, yield after HPLC came to 42%. Consider `C[C@@H]1NC(=O)[C@H](C)NC(=O)[C@H](C)NC(=O)[C@@H](N)Cc2ccc(O)c(c2)CC2=CN=C(NCCCNC1=O)S2` [Macrocycle], for which, in series [1] (from Boc-Tyr-Ala-Ala-Ala-NH-(CH2)3-NH-[5-(hydroxymethyl)thiazol-2-yl]?, 24-membered ring, TfOH, NMM quench, nitromethane, 9.9 mM), the ring closure, yield after HPLC was determined as 15.4%.

Turning to `C[C@@H]1NC(=O)CNC2=NC=C(Cc3cc(ccc3O)C[C@@H](C(=O)NCC(=O)O)NC(=O)[C@H](C)NC(=O)[C@H](C)NC1=O)S2` [Macrocycle], in series [1] (from (5-(hydroxymethyl)thiazol-2-yl)-Gly-Ala-Ala-Ala-Tyr-Gly-OtBu?, 22-membered ring, TfOH, NMM quench, nitroethane, 5.7 mM, 25.0 °C), the ring closure, yield after HPLC came out at 35%. Molecule `CC(C)[C@@H]1NC2=NC=C(Cc3cc(ccc3O)C[C@@H](C(N)=O)NC(=O)[C@H](C)NC(=O)[C@H](C)NC(=O)[C@H](C)NC(=O)[C@H](C)NC1=O)S2` [Thia-V(d)AAAAY] came in with a ring closure, yield after HPLC in series [1] (setting [7]) of 22.3%.

As for `C[C@@H]1NC(=O)CNC2=NC=C(Cc3cc(ccc3O)C[C@@H](C(N)=O)NC(=O)[C@H](C)NC1=O)S2` [“Thia-G-A-A-Y” (SEQ ID NO. 9) Macrocycle], in series [1] (from (5-(hydroxymethyl)thiazol-2-yl)-Gly-Ala-Ala-Tyr-NH2?, 19-membered ring, TfOH, MeNO2, 14.7 mM, 25.0 °C, 2 steps), the ring closure, yield after HPLC turned out to be 70.2%. Molecule `C[C@@H]1NC(=O)[C@H](C)NC(=O)[C@H](Cc2ccccc2)NC(=O)CNC2=NC=C(Cc3cc(ccc3O)C[C@@H](C(N)=O)NC1=O)S2` [Thia-G-F-A-A-Y—CONH2 (SEQ ID NO. 10) macrocycle] gave a ring closure, yield after HPLC in series [1] (from (5-(hydroxymethyl)thiazol-2-yl)-Gly-Phe-Ala-Ala-Tyr-NH2?, 22-membered ring, TfOH, MeNO2, 11.5 mM, 25.0 °C, 2 steps) of 68.5%.

`C[C@H](NC(=O)[C@H](C)NC(=O)CNC(=O)[C@@H]1Cc2ccc(O)c(c2)CC2=CN=C(NCC(=O)N[C@@H](C)C(=O)N[C@@H](C)C(=O)N[C@@H](C)C(=O)N1)S2)C(N)=O` [Macrocycle] registered a ring closure, yield after HPLC in series [1] (from (5-(hydroxymethyl)thiazol-2-yl)-Gly-Ala-Ala-Ala-Tyr-Gly-Ala-Ala-NH2?, 22-membered ring, TfOH, NMM quench, nitroethane/TfOH 1:1, 5.4 mM, 25.0 °C) of 62%. As for `CC(C)[C@@H]1NC2=NC=C(Cc3cc(ccc3O)C[C@@H](C(N)=O)NC(=O)CNC(=O)[C@H](C)NC(=O)[C@H](C)NC1=O)S2` [Thia-V(l)AAGY (SEQ ID NO. 13) Macrocycle], the ring closure, yield after HPLC in series [1] (from (5-(hydroxymethyl)thiazol-2-yl)-Val-Ala-Ala-Gly-Tyr-NH2?, 22-membered ring, TfOH, MeNO2, 6.45 mM, 25.0 °C, 2 steps) was found to be 52.7%. Molecule `CC(C)[C@H]1NC2=NC=C(Cc3cc(ccc3O)C[C@@H](C(N)=O)NC(=O)CNC1=O)S2` [Thia-V(d)GY] returned a ring closure, yield after HPLC in series [1] (setting [8]) of 22%. With `COc1ccc2cc1CC1=CN=C(NCC(=O)N[C@@H](C)C(=O)NCC(=O)NCC(=O)N3C[C@H](O)[C@@H](O)[C@H]3C2)S1` [Macrocycle Anisomycin-GGAG-Thia], in series [1] (from (S)-N-(2-(2-((2R,3S,4S)-3,4-Dihydroxy-2-(4-methoxybenzyl)pyrrolidin-1-yl)-2-oxoethylamino)-2-oxoethyl)-2-(2-(5-(hydroxymethyl)thiazol-2-ylamino)acetamido)propanamide?, 22-membered ring), the ring closure, yield after HPLC worked out at 53.2%. As for `CC[C@H](C)[C@@H]1NC(=O)[C@@H](NC(=O)OCC2c3ccccc3-c3ccccc32)Cc2ccc(OC)c(c2)CC2=CN=C(NCC(=O)NC[C@@H](C(=O)O)NC(=O)[C@H](CCC(=O)OC)NC(=O)CNC1=O)S2` [Macrocycle], the ring closure, yield after HPLC in series [1] (from (5S,8S,14S,17S)-8-((S)-sec-butyl)-1-(9H-fluoren-9-yl)-17-((2-((5-(hydroxymethyl)thiazol-2-yl)amino)acetamido)methyl)-14-(3-methoxy-3-oxopropyl)-5-(4-methoxybenzyl)-3,6,9,12,15-pentaoxo-2-oxa-4,7,10,13,16-pentaazaoctadecan-18-oic acid, 26-membered ring, TfOH, NMM quench, nitromethane, 5.57 mM, 25.0 °C) is 40.3%. The molecule `C[C@@H]1NC(=O)CNC2=NC=C(Cc3cc(ccc3O)C[C@@H](C(N)=O)NC1=O)S2` [“Thia-G-A-Y” Macrocycle] had a ring closure, yield after HPLC in series [1] (from (5-(hydroxymethyl)thiazol-2-yl)-Gly-Ala-Tyr-NH2, 16-membered ring, TfOH, MeNO2, 7.0 mM, 25.0 °C) of 56%.

In the case of `CC(C)[C@H]1NC2=NC=C(Cc3cc(ccc3O)C[C@@H](C(N)=O)NC(=O)CNC1=O)S2` [Thia-V(l)GY], the ring closure, yield after HPLC in series [1] (setting [8]) was found to be 19%. As for `CC(C)[C@@H]1NC2=NC=C(Cc3cc(ccc3O)C[C@@H](C(N)=O)NC(=O)[C@H](C)NC(=O)[C@H](C)NC(=O)[C@H](C)NC(=O)[C@H](C)NC1=O)S2` [Thia-V(l)AAAAY (SEQ ID NO. 12)], the ring closure, yield after HPLC in series [1] (setting [7]) was found to be 35.2%.
